From patent publication US11142548B2, “Agents that activate CD47 and their use in the treatment of inflammation” (SORBONNE UNIVERSITE, priority 2016, dated 2021)

Columns and labels:
[1] = test system: subretinal IBA-1+ mononuclear monocytes; test: Laser-induced subretinal inflammation in wildtype- and Tsp1-/- mice; assay type: in vivo, mouse; conditions: wildtype- and Tsp1-/- mice, intravitreal at d3, d7; FIG. 3 statistics given for Tsp1-/- mice vs PBS
Experimental: (§1) Laser-coagulations were performed with a 532 nm ophtalmological laser mounted on an operating microscope (Vitra Laser, 532 nm, 450 mW, 50 ms, and 250 μm): Intravitreal injections of 2 μl of HTRA1 and/or TSP1 were performed using glass capillaries (Eppendorf) and a micro injector. The 2 μl injection solution contained 50 μg/ml TSP1 and HTRA1, corresponding to an intraocular concentration of 5 μg/ml of each protein assuming their dilution by approximately 1/10th in the intra-ocular volume. […] A volume of 2 μl of a 100 μM solution of either PBS, recombinant TSP1 (10 μg/ml), the 4NGG control peptide or the CD47-activating peptide PKT16 (200 μM) was injected at day 4 (when MP infiltration is maximal) and day 7 after the injury and evaluated subretinal inflammation on flatmounted RPE/choroidal flatmounts at day 10.
(§2) Eyes were enucleated, fixed in 4% PFA 30 minutes and sectioned at the limbus; the cornea and lens were discarded. […] Choroids and retinas were flatmounted and viewed with a fluorescence microscope DM5500B (Leica). IBA-1+ cells were counted on whole RPE/choroidal flatmounts and on the outer segment side of the retina. […]

[2] = test system: subretinal IBA-1+ MPs; test: Laser-injury model in Cx3cr1GFP/GFP mice; assay type: in vivo, mouse; conditions: 2 μl intravitreal at day 4 and day 7, day 10, vs PBS or 4NGG
Experimental: as §1, §2

## recombinant TSP1: recombinant human TSP1 (R&D Systems), natural ligand and agonist of CD47
[1]
  reduction of laser-induced subretinal inflammation: significantly reduces
[2]
  elimination of subretinal IBA-1+ MPs adjacent to the laser impact: eliminated significantly more efficiently
